Measurements published in US9121022B2, “Method for controlling herbicide-resistant plants” (priority 2010, dated 2015).
Structures can show the parent of a compound that is named as a salt. {Alexa488} = Alexa Fluor 488 (Invitrogen) label

What was measured:
[1] = tested on: glyphosate-resistant Palmer amaranth containing 16 copies of EPSPS; assay: glyphosate counter-ions with EPSPS polynucleotides, percent control and plant height (Example 35, Table 29); format: in vivo; details: for Palmer control (%): Table 29: glyphosate salt 1682 g acid equivalent per hectare, with or without EPSPS polynucleotides IDT [1]-[4] in 0.5% SILWET L-77, 2% ammonium sulfate, 16-copy EPSPS Palmer amaranth, 3 replicates
Description: FIG. 38 depicts the effect of varying glyphosate counter-ions on herbicidal activity (presented as percent of weed control/kill, and as plant height) of topically applied polynucleotides (RNA) on glyphosate-resistant Palmer amaranth plants. A mixture of EPSPS polynucleotides (IDT [1] (SEQ ID NO:83-84), IDT [2] (SEQ ID NO:85-86), IDT [3] (SEQ ID NO:87-88), and IDT [4] (SEQ ID NO:89-90)) in 0.5% SILWET L-77® brand surfactant, 2% ammonium sulfate in 10 millimolar sodium phosphate buffer, pH 6.8 with 0.2% Roundup® WeatherMax® carrier (MON56151 tallowamine surfactant blend of tallowamine (16-18C) and cocoamine (12-14C) in the ratio of 55:45) and 1682 g acid equivalent per hectare of one of the glyphosate salts; K+ glyphosate, isopropylammonium+ glyphosate or monoethanolammonium+ glyphosate at 215 liters/acre by Milli spray on 3 replicates of 4-6 inch glyphosate-resistant Palmer amaranth containing 16 copies of EPSPS. Plant height was scored at 21 days after glyphosate treatment.

[2] = tested on: glyphosate-resistant Palmer amaranth plants; assay: additives (salts, EDTA, glycerin) to polynucleotide spray solutions, percent control and plant height (Example 35, Tables 26-28); format: in vivo; details: additive in spray solution
Description: The efficacy of different substances (including salts, a chelating agent, a humectant, and polyamines) as polynucleotide transferring agents or as enhancers of a known polynucleotide transferring agent was investigated.

[3] = tested on: detached leaves of glyphosate-resistant Palmer amaranth; assay: petiole uptake of fluorescently labelled ssDNA oligonucleotide into detached leaves (Example 9); set-up: species or system Palmer amaranth (Amaranthus palmeri)
Method: Petioles of detached leaves of glyphosate-resistant Palmer amaranth were placed in 200 mM sucrose solution with fluorescently labelled ssDNA oligonucleotides (SEQ ID NO:15). Leaf images were taken by Bio-Rad PharosFX imager equipped with a 488 nm laser from 4 h up to 48 h after uptake through petiole. Leaves incubated with 200 mM sucrose alone served as control.

[4] = tested on: Glyphosate-resistant Palmer amaranth plants (33, 36, or 57 copies EPSPS); assay: spermine, spermidine or ammonium sulfate with dsRNA then glyphosate (Example 35, FIG. 39); format: in vivo; details: for performance compared with 2% ammonium sulfate: 1 or 10 millimolar
Method: The effect of the polyamine cations spermine (N,N′-bis(3-aminopropyl)butane-1,4-diamine) and spermidine (N-(3-aminopropyl)butane-1,4-diamine) on herbicidal activity of topically applied polynucleotides (RNA) on glyphosate-resistant Palmer amaranth plants was investigated. […] The dsRNA polynucleotide solutions were prepared with either 1 or 10 millimolar spermine or spermidine or 2% ammonium sulfate, in a 10 millimolar sodium phosphate (pH 6.8) buffer. Control solutions (without polynucleotides) were prepared with either 1 or 10 millimolar spermine or spermidine or 2% ammonium sulfate, in a 10 millimolar sodium phosphate (pH 6.8) buffer. Glyphosate-resistant Palmer amaranth plants (33, 36, or 57 copies EPSPS) were pre-sprayed with 1% SILWET L-77® brand surfactant. The dsRNA polynucleotide solutions (11.6 grams/acre) or buffer solutions were applied as drops on four lower fully expanded leaves of glyphosate resistant Palmer amaranth by pipetting. Two days following polynucleotide treatment the plants were sprayed with glyphosate (3360 g acid equivalent per hectare of Roundup® WeatherMAX® brand herbicide).

[5] = tested on: Nicotiana benthamiana phytoene desaturase; assay: single PDS ssDNA 22-mer on tobacco: bleaching of organs, seed set, germination (Example 12); format: in vivo
Method: Four-week old tobacco (Nicotiana benthamiana) plants were used in all treatments. Two fully expanded leaves (one cotyledon, one true leaf) were conditioned by dipping into freshly made surfactant solution (0.1% SILWET L-77® brand surfactant in double-distilled water) for a few seconds and allowed to dry for 15-30 minutes. Twenty microliters of a single-stranded DNA (ssDNA) 22-mer oligonucleotide with the sequence […] (SEQ ID NO:39), corresponding to the nucleotides at positions 1099-1120 of Nicotiana benthamiana phytoene desaturase (SEQ ID NO:2) was applied as a 25 micromolar solution in 0.01% SILWET L-77® brand surfactant in 5 millimolar sodium phosphate buffer, pH 6.8 to the top surface of each conditioned leaf for a total of 40 microliters (1 nanomole oligonucleotide) per plant. Control plants were treated with the SILWET® brand surfactant solution without the DNA oligonucleotide.
Flowers of both control and ssDNA-treated plants were allowed to set seed. Seeds were collected from mature fruits, weighed, and allowed to germinate. Seed weights were identical (about 11 mg per 100 seeds) and seed morphology appeared similar between the ssDNA-treated and the control plants.
In a separate assay using a similar procedure, tobacco plants were conditioned by dipping in 0.1% SILWET L-77® brand surfactant in double-distilled water, allowed to dry for 15-30 minutes, and treated with the PDS ssDNA 22-mer (SEQ ID NO:39) applied as a 25 micromolar solution in 0.01% SILWET L-77® brand surfactant in 5 millimolar sodium phosphate buffer, pH 6.8 to the top surface of each conditioned leaf for a total of 40 microliters (1 nanomole oligonucleotide) per plant. Other plants were not conditioned with a surfactant treatment, but were treated only with 1 nanomole of the PDS ssDNA 22-mer (SEQ ID NO:39) applied either by infiltration with a needleless syringe (shown in FIG. 18B) or by hand application of drops to the leaf surface (not shown in FIG. 18B), and either as a 25 micromolar solution in 0.01% SILWET L-77® brand surfactant in 5 millimolar sodium phosphate buffer, pH 6.8 or as a 25 micromolar solution in 5 millimolar sodium phosphate buffer, pH 6.8 (without surfactant). Negative control plants were treated with the SILWET® brand surfactant buffer solution without the DNA oligonucleotide. Results are depicted in FIG. 18B.

[6] = tested on: volunteer glyphosate-resistant corn plants; assay: synthetic Pol III gene dsDNA on volunteer glyphosate-resistant corn in soybean (Example 8); format: in vivo; details: glyphosate 7 days after dsDNA; 15 days later
Description: This example illustrates the utility of employing a synthetic Pol III gene in compositions and methods of this invention. With reference to SEQ ID NO:3 and FIG. 2, a synthetic Pol III gene is created using elements from an Arabidopsis thaliana U6 snRNA gene to provide a dsDNA molecule with two copies of RGCCCR elements (bold and underlined), an upstream sequence element (USE) having the sequence “[…]” (SEQ ID NO:4, bold and underlined), a TATA box (bold and underlined), a “G” nucleotide (bold and underlined), anti-sense DNA (italics) corresponding to a bacterial DNA encoding an EPSPS protein (see U.S. Pat. RE39,247) that imparts resistance to glyphosate herbicide when expressed in transgenic corn plants, an “[…]” element (SEQ ID NO:5, bold and underlined) embedded in the anti-sense DNA, an “[…]” element (SEQ ID NO:6, bold and underlined) followed by sense DNA (lower case) and a “TTTTTT” terminator element (SEQ ID NO:7, bold and underlined). A solution of 0.1 wt % SILWET L-77® brand organosilicone surfactant and a solution of multiple copies of the dsDNA molecule are sprayed onto leaves of volunteer glyphosate-resistant corn plants growing in a field of glyphosate-resistant soybean plants, followed 7 days later by treatment with Roundup WeatherMAX® brand glyphosate herbicide. […]

O=C(O)CNCP(=O)(O)O [isopropylammonium salt of glyphosate, glyphosate, reference compound]
herbicidal activity by glyphosate salt ([1]; 1682 g ae/ha glyphosate salt with IDT [1]-[4], 21 days after glyphosate treatment): better herbicidal activity compared to the potassium salt

O=C(O)CNCP(=O)([O-])O.[K+] [K + glyphosate]
Palmer control (%) [1]: 23%

OCC(O)CO [Glycerin, glycerin]
effect of additive on efficacy of the polynucleotides and herbicidal activity of glyphosate [2]: enhance the efficacy of the polynucleotides

Cl.N [ammonium chloride]
effect of additive on efficacy of the polynucleotides and herbicidal activity of glyphosate [2]: act similarly to ammonium sulfate

CC(C)N.O=C(O)CNCP(=O)(O)O [IPA + glyphosate]
Palmer control (%) [1]: 9%

ACCCTCCACGACTGCCCTTT (DNA, 5' {Alexa488}, backbone not given here; listed as Amaranthus palmeri) [Anti-sense_PO1_488, ssDNA anti-sense to Amaranthus palmeri EPSPS]
time of release from vascular tissue into cells ([3]; after treatment): 8 h | vascular uptake into leaf ([3]; petiole uptake in 200 mM sucrose, imaged 4 h to 48 h): slightly time-dependent vascular uptake

NCCCCNCCCN [spermidine, N-(3-aminopropyl)butane-1,4-diamine]
effect on 33-copy plants of polyamine alone ([4]; 10 mM, without polynucleotides): stunted | performance compared with 2% ammonium sulfate [4]: neither spermine nor spermidine at 1 or 10 millimolar performed as well as 2% ammonium sulfate

NCCCNCCCCNCCCN [spermine, N,N′-bis(3-aminopropyl)butane-1,4-diamine]
performance compared with 2% ammonium sulfate [4]: neither spermine nor spermidine at 1 or 10 millimolar performed as well as 2% ammonium sulfate

CCCC[P+](CCCC)(CCCC)CCCC.[Br-] [tetrabutylphosphonium bromide]
effect of additive on efficacy of the polynucleotides and herbicidal activity of glyphosate [2]: act similarly to ammonium sulfate

NCCO.O=C(O)CNCP(=O)(O)O [MEA + glyphosate]
Palmer control (%) [1]: 9%

GGCAGTACAATTAAAGGAGATG (DNA, backbone not given here; listed as Nicotiana benthamiana) [SEQ ID NO:39]
bleaching without surfactant conditioning (FIG. 18B) ([5]; 1 nanomole by infiltration or hand application of drops, no conditioning): displayed bleaching of apical leaves, stems, and flowers | bleaching of apical leaves, stems, and flowers (FIG. 18A) ([5]; 1 nanomole per plant after surfactant conditioning): all displayed bleaching | germination rate ([5]; seeds from ssDNA-treated plants, control 95 out of 100): 4 out of 100 | seed weight ([5]; seeds from ssDNA-treated plants, identical to control): about 11 mg per 100 seeds

O=C(O)CN(CCN(CC(=O)O)CC(=O)O)CC(=O)O [ethylenediaminetetraacetic acid (EDTA), ethylenediaminetetraacetic acid]
effect of additive on efficacy of the polynucleotides and herbicidal activity of glyphosate [2]: act similarly to 2% ammonium sulfate

B1: synthetic Pol III gene: dsDNA from Arabidopsis U6 snRNA gene elements with anti-sense and sense DNA of bacterial EPSPS (nucleic acid)
DNA: GGCCCATAGGCCTTTTTCTAAAATAGGCCCATTTAAGCTATTAACAATCTTCAAAAGTACCACATCGCTTAGGTAAAGAAAGCAGCTGAGTTTATATATGGTTAGAGACGAAGTAGTGATTGCGACGAGCGACGTCTCGCCCTCATCGCAATCCACGCCATTGAGCTTGAGGCCATTGGCGACGGCCGAGAGGCGGTCGCTTAAGATTAGCATGTCCTTGACGCGGAGTTCTTCCAGACCGTTCATCACGGTCGCCCCTTCCGCGAAGGCGGCGGCGACAGCGAGAATCGGATATTCGTCGATCATCGAAGGCGCGCGGTCTTCCGGCACCGTGACGCATAAACACGGTGCCGGAAGACCGCGCGCCTTCGATGATCGACGAATATCCGATTCTCGCTGTCGCCGCCGCCTTCGCGGAAGGGGCGACCGTGATGAACGGTCTGGAAGAACTCCGCGTCAAGGAAAGCGACCGCCTCTCGGCCGTCGCCAATGGCCTCAAGCTCAATGGCGTGGATTGCGATGAGGGCGAGACGTCGCTCGTCGTTTTTTTTGGCAAAAA
condition of soybean crop plants [6]: thriving | condition of volunteer corn plants [6]: dead
